Read-outs that look alike come from different tables or passages of the source.

Test [1] concerns the target human TLR7 (Homo sapiens (Human), UniProt Q9NYK1). The test can be described thus: TLR7 inhibition reporter assay (HEK-Blue cells, SEAP reporter, gardiquimod stimulation). Type of test: cell-based. Conditions: HEK-Blue cells overexpressing human TLR7, gardiquimod 7.5 μM. (In a reporter assay the amount or activity of a reporter protein is the signal.)
The target in test [2] is human TLR8 (Homo sapiens (Human), UniProt Q9NR97). The test can be described thus: TLR8 inhibition reporter assay (HEK-Blue cells, SEAP reporter, R848 stimulation).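 Also: compounds tested from 0.05 nM to 50 µM, 22 h at 37 °C, SEAP measured with HEK-Blue Detection, inhibition relative to agonist plus DMSO versus a known inhibitor.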
Chain of human TLR8 (Q9NR97 27-1041): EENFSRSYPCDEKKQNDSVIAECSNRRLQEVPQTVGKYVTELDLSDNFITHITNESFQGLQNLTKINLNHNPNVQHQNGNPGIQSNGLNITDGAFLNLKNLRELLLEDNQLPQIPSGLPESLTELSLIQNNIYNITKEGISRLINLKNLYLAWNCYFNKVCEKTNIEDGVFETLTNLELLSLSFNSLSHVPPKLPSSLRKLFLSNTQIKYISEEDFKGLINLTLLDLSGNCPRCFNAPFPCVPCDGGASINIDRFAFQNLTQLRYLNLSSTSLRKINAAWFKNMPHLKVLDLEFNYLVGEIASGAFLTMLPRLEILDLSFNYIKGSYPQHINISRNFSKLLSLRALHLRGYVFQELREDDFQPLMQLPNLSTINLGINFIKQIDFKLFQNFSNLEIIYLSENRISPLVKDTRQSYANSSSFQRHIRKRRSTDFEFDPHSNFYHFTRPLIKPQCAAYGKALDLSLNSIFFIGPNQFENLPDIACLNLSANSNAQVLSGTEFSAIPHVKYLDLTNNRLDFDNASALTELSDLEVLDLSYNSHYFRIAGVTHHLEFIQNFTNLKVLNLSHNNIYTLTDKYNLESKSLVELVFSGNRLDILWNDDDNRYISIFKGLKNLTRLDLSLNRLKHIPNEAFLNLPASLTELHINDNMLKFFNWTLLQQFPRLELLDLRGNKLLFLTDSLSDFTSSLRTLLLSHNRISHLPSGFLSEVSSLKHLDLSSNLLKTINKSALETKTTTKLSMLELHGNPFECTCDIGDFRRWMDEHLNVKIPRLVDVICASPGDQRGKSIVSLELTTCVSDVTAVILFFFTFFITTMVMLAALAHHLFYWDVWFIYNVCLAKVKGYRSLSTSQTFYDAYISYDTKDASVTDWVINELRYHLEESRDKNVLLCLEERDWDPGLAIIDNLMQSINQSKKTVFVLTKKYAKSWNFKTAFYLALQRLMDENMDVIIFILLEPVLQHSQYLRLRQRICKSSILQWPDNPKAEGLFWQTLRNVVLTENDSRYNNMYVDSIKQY
The target of test [3] is human TLR9 (Homo sapiens (Human), UniProt Q9NR96). The test can be described thus: TLR9 inhibition reporter assay (HEK-Blue cells, SEAP reporter, ODN2006 stimulation).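 Also: compounds tested over 0.05 nM to 50 µM, 22 h incubation, inhibition taken as SEAP signal drop from agonist plus DMSO wells toward a known inhibitor control.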
Chain of human TLR9 (Q9NR96 26-1032): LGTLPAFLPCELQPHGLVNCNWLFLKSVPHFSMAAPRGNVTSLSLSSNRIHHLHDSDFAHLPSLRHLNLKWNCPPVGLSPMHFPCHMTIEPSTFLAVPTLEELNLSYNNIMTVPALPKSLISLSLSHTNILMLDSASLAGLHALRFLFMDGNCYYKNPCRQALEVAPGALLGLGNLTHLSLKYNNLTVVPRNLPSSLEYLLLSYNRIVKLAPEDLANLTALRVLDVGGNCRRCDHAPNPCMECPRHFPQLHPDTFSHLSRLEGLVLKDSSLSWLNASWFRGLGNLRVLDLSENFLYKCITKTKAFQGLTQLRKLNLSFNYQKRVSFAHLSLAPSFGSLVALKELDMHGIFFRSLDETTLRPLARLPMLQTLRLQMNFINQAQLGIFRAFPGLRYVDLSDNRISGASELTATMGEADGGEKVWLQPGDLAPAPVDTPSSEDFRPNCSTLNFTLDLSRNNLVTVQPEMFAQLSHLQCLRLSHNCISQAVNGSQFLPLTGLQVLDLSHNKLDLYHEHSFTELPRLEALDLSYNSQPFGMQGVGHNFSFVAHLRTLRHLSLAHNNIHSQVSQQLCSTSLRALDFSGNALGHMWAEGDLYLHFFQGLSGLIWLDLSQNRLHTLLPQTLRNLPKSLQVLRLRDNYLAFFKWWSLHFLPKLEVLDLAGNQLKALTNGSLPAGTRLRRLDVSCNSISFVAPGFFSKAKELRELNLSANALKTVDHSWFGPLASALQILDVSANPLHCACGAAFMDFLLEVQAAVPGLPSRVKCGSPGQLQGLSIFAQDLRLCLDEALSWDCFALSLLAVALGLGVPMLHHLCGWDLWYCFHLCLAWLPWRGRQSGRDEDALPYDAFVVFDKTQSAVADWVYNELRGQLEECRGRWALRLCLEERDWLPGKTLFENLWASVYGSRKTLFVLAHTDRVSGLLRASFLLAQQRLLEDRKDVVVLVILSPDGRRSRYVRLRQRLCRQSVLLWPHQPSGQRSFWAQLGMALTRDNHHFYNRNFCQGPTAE
Setting [4] is: read-out: TLR8 IC50, HEK-Blue cells overexpressing human TLR8, R848 15.9 μM.
[5] abbreviates: read-out: TLR9 IC50, HEK-Blue cells overexpressing human TLR9, ODN2006 5 nM.
The mark [6] stands for this setting: TLR8 IC50, HEK-Blue cells overexpressing human TLR8, R848 15.9 μM.
Setting [7] is: TLR9 IC50, HEK-Blue cells overexpressing human TLR9, ODN2006 5 nM.

Chain of human TLR7 (Q9NYK1 27-1049): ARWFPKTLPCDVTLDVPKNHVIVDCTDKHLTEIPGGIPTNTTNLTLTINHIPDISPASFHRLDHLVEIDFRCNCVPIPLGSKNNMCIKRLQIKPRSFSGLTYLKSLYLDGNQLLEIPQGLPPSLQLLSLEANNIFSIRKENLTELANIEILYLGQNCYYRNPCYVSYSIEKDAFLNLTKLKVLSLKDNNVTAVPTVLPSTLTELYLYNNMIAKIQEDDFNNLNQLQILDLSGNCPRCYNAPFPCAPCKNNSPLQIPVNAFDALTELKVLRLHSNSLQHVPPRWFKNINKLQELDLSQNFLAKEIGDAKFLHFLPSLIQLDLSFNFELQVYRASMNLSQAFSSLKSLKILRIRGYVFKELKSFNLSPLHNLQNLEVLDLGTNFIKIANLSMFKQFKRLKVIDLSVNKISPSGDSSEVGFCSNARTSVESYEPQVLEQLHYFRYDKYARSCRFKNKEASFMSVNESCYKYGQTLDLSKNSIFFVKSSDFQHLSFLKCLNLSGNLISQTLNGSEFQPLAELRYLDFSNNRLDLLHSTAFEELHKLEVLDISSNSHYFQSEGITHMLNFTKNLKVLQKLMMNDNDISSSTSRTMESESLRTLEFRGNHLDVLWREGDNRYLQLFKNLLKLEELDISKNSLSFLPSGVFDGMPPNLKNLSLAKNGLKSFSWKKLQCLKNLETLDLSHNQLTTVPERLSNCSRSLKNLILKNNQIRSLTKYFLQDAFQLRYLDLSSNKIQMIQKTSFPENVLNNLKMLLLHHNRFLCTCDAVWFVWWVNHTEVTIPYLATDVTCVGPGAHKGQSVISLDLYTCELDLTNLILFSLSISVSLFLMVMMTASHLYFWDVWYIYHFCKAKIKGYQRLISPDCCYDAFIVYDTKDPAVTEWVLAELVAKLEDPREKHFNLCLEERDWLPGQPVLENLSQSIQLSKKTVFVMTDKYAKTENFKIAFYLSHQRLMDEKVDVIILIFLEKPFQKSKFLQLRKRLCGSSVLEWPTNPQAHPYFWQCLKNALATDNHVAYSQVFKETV

Broadly, the IC50 is the concentration that inhibits the measured activity by half. Take `Cc1nc(CN2CCC(c3ccc4[nH]c(-c5ccnc(C6CC6)c5)c(C(C)C)c4c3)CC2)c[nH]1` [Example 484, 2-(2-cyclopropylpyridin-4-yl)-3-isopropyl-5-(1-((2-methyl-1H-imidazol-4-yl)methyl)piperidin-4-yl)-1H-indole]: the IC50 came to 77.6 nM in test [1], 96.3 nM in test [2] (setting [4]) and 279 nM in test [3] (setting [5]).

`CC(C)c1c(-c2ccncc2)[nH]c2ccc(C3CCN(C(=O)CN(C)C)CC3)cc12` [Example 524, 2-(dimethylamino)-1-(4-(3-isopropyl-2-(pyridin-4-yl)-1H-indol-5-yl)piperidin-1-yl) ethan-1-one]: the IC50 in test [1] amounted to 33.6 nM; in test [2] (setting [4]) it was 29.2 nM; in test [3] (setting [5]) it was 2800 nM.

Regarding `Cc1cc(-c2[nH]c3ccc(C4CCNCC4(F)F)cc3c2C(C)C)cc(C)n1` (single isomer, unassigned) [Example 489B, 5-(3,3-difluoropiperidin-4-yl)-2-(2,6-dimethylpyridin-4-yl)-3-isopropyl-1H-indole], the IC50 in test [1] is 1.3 nM; in test [2] (setting [6]), 20 nM; in test [3] (setting [7]), 1010 nM.

Regarding `Cc1cc(-c2[nH]c3ccc(C4CCN(Cc5cn[nH]c5)CC4)cc3c2C(C)C)cc(C)n1` [Example 438, 5-(1-((1H-pyrazol-4-yl)methyl)piperidin-4-yl)-2-(2,6-dimethylpyridin-4-yl)-3-isopropyl-1H-indole], the IC50 in test [1] was determined as 1.2 nM; in test [2] (setting [4]) it was 3.1 nM; in test [3] (setting [5]), 69 nM.

In the case of `CC(C)c1c(-c2ccnc(Cl)c2F)[nH]c2ccc(C3CCNCC3)cc12` [Example 21, 2-(2-chloro-3-fluoropyridin-4-yl)-3-isopropyl-5-(piperidin-4-yl)-1H-indole], the half-maximal inhibitory concentration (IC50) in test [1] came to 1.5 nM; in test [2] (setting [4]), 4 nM; in test [3] (setting [5]), 2980 nM.

In the case of `CO[C@@H]1C[C@H](CO)N(C(=O)CN2CCC(c3ccc4[nH]c(-c5cc(C)nc(C)c5)c(C(C)C)c4c3)CC2)C1` [Example 292, 2-(4-(2-(2,6-dimethylpyridin-4-yl)-3-isopropyl-1H-indol-5-yl)piperidin-1-yl)-1-((2R,4R)-2-(hydroxymethyl)-4-methoxypyrrolidin-1-yl)ethan-1-one], the values for the IC50 in test [1], in test [2] (setting [4]) and in test [3] (setting [5]) were 3.1 nM, 12.3 nM and 365 nM, respectively.

In the case of `Cc1cc(-c2[nH]c3ccc(C4CCN(CC(=O)N5CCC[C@@H]5CO)CC4)cc3c2C(C)C)cc(C)n1` [Example 302, (R)-2-(4-(2-(2,6-dimethylpyridin-4-yl)-3-isopropyl-1H-indol-5-yl)piperidin-1-yl)-1-(2-(hydroxymethyl)pyrrolidin-1-yl) ethan-1-one], the IC50 in test [1] was 8.2 nM; in test [2] (setting [4]), 63.1 nM; in test [3] (setting [5]) it was 1260 nM.

For `Cc1cc(-c2[nH]c3ccc(C4CCN(C5CCN(C(C)C)CC5F)CC4)cc3c2C(C)C)ccn1` (stereo not drawn) [Example 706, 5-(3′-fluoro-1′-isopropyl-[1,4′-bipiperidin]-4-yl)-3-isopropyl-2-(2-methylpyridin-4-yl)-1H-indole], the IC50 in test [1] was determined as 23 nM; in test [2] (setting [4]) it was 5 nM; in test [3] (setting [5]), 340 nM.

Consider `CCc1c(-c2ccnc(C)c2)[nH]c2ccc(C3CCN(C(C)C)CC3)cc12` [Example 672, 3-ethyl-5-(1-isopropylpiperidin-4-yl)-2-(2-methylpyridin-4-yl)-1H-indole], for which the IC50 amounted to 252 nM in test [1], 116 nM in test [2] (setting [4]) and 894 nM in test [3] (setting [5]).

With `CCc1c(-c2ccnc(N)c2O)[nH]c2ccc(C3CCNCC3)cc12` [Example 71, 2-amino-4-(3-ethyl-5-(piperidin-4-yl)-1H-indol-2-yl)pyridin-3-ol], the figures for the IC50 in test [1], in test [2] (setting [4]) and in test [3] (setting [5]) were 7200 nM, 5640 nM and 2830 nM, respectively.

With `Cc1cc(-c2[nH]c3ccc(C4CCN(CC(=O)NCC(C)O)CC4)cc3c2C(C)C)cc(C)n1` (stereo not drawn) [Example 260, 2-(4-(2-(2,6-dimethylpyridin-4-yl)-3-isopropyl-1H-indol-5-yl)piperidin-1-yl)-N-(2-hydroxypropyl) acetamide], the results for the IC50 in test [1], in test [2] (setting [4]) and in test [3] (setting [5]) were 1.5 nM, 5.1 nM and 379 nM, respectively.

For `Cc1cc(-c2[nH]c3ccc(C4CCN(C(=O)CN(C)C)CC4)cc3c2C(C)C)c(F)cn1` [Example 586, 2-(dimethylamino)-1-(4-(2-(5-fluoro-2-methylpyridin-4-yl)-3-isopropyl-1H-indol-5-yl)piperidin-1-yl)ethan-1-one], the figures for the half-inhibitory concentration (IC50) in test [1], in test [2] (setting [4]) and in test [3] (setting [5]) were 2.6 nM, 6.2 nM and 3040 nM, respectively.

As for `Cc1cc(-c2[nH]c3ccc(C4CCN(CC(=O)N5CCCCC5C)CC4)cc3c2C(C)C)cc(C)n1` (stereo not drawn) [Example 270, 2-(4-(2-(2,6-dimethylpyridin-4-yl)-3-isopropyl-1H-indol-5-yl)piperidin-1-yl)-1-(2-methylpiperidin-1-yl)ethan-1-one], the IC50 in test [1] amounted to 6.4 nM; in test [2] (setting [4]), 15.5 nM; in test [3] (setting [5]), 192 nM.

Take `Cc1cc(-c2[nH]c3ccc(C4CCN(C)CC4)cc3c2C(C)C)c(F)cn1` [Example 635, 2-(5-fluoro-2-methylpyridin-4-yl)-3-isopropyl-5-(1-methylpiperidin-4-yl)-1H-indole]: the IC50 in test [1] came out at 5.6 nM; in test [2] (setting [4]), 5.1 nM; in test [3] (setting [5]), 3690 nM.

For `Cc1cc(-c2[nH]c3ccc(C4CCN(C(=O)CNCC5(C)CC5)CC4)cc3c2C(C)C)cc(C)n1` [Example 365, 1-(4-(2-(2,6-dimethylpyridin-4-yl)-3-isopropyl-1H-indol-5-yl)piperidin-1-yl)-2-(((1-methylcyclopropyl)methyl)amino)ethan-1-one], the results for the IC50 in test [1], in test [2] (setting [6]) and in test [3] (setting [7]) were 6.5 nM, 22.9 nM and 854 nM, respectively.

In the case of `Cc1cc(-c2[nH]c3ccc(C4CCN(C(=O)CN5CCC[C@@H]5CO)CC4)cc3c2C(C)C)cc(C)n1` [Example 412, (R)-1-(4-(2-(2,6-dimethylpyridin-4-yl)-3-isopropyl-1H-indol-5-yl)piperidin-1-yl)-2-(2-(hydroxymethyl)pyrrolidin-1-yl)ethan-1-one], the figures for the IC50 in test [1], in test [2] (setting [4]) and in test [3] (setting [5]) were 4.7 nM, 34 nM and 568 nM, respectively.

As to `CCc1c(-c2ccnc(OC)c2)[nH]c2ccc(C3CCN(C4C[C@H]5CCC[C@@H](C4)N5C)CC3)cc12` (stereo partly drawn) [Example 798, 3-ethyl-2-(2-methoxypyridin-4-yl)-5-(1-((1R,3r,5S)-9-methyl-9-azabicyclo[3.3.1]nonan-3-yl)piperidin-4-yl)-1H-indole], the half-maximal inhibitory concentration (IC50) is 624 nM in test [1], 165 nM in test [2] (setting [4]) and 67 nM in test [3] (setting [5]).

Consider `COCCOC(=O)N1CCC(c2ccc3[nH]c(-c4ccnc(C)c4)c(C(C)C)c3c2)CC1` [Example 561, 2-methoxyethyl 4-(3-isopropyl-2-(2-methylpyridin-4-yl)-1H-indol-5-yl)piperidine-1-carboxylate], for which the IC50 in test [1] amounted to 202 nM; in test [2] (setting [4]), 363 nM; in test [3] (setting [5]) it was 43900 nM.

With `COc1cc(-c2[nH]c3ccc(C4CCN(C5CCN(C)CC5)CC4)cc3c2C(C)C)ccn1` [Example 795, 3-isopropyl-2-(2-methoxypyridin-4-yl)-5-(1′-methyl-[1,4′-bipiperidin]-4-yl)-1H-indole], the figures for the 50% inhibitory concentration (IC50) in test [1], in test [2] (setting [4]) and in test [3] (setting [5]) were 129 nM, 12.5 nM and 851 nM, respectively.

For the molecule `CCN1CCC(N2CCC(c3ccc4[nH]c(-c5ccnc(OC)c5)c(C(C)C)c4c3)CC2)CC1` [Example 801, 5-(1′-ethyl-[1,4′-bipiperidin]-4-yl)-3-isopropyl-2-(2-methoxypyridin-4-yl)-1H-indole], the IC50 was 561 nM in test [1], 218 nM in test [2] (setting [4]) and 740 nM in test [3] (setting [5]).

With `Cc1cc(-c2[nH]c3ccc(C4CCN(C(=O)CN5C(=O)CN(C)C5=O)CC4)cc3c2C(C)C)cc(C)n1` [Example 160, 3-(2-(4-(2-(2,6-dimethylpyridin-4-yl)-3-isopropyl-1H-indol-5-yl)piperidin-1-yl)-2-oxoethyl)-1-methylimidazolidine-2,4-dione], the IC50 in test [1] was 7.1 nM; in test [2] (setting [4]), 35.8 nM; in test [3] (setting [5]), > 50000 nM.

As for `Cc1cc(-c2[nH]c3ccc(C4CCN(CC(=O)NC56CC7CC(CC(C7)C5)C6)CC4)cc3c2C(C)C)cc(C)n1` [Example 224, N-(adamantan-1-yl)-2-(4-(2-(2,6-dimethylpyridin-4-yl)-3-isopropyl-1H-indol-5-yl)piperidin-1-yl)acetamide], the IC50 was 286 nM in test [1], 820 nM in test [2] (setting [4]) and 4130 nM in test [3] (setting [5]).

As for `Cc1cc(-c2[nH]c3ccc(C4CCN(CC(=O)N(C)C)CC4)cc3c2C(C)C)c(F)cn1` [Example 643, 2-(4-(2-(5-fluoro-2-methylpyridin-4-yl)-3-isopropyl-1H-indol-5-yl)piperidin-1-yl)-N,N-dimethylacetamide], the IC50 in test [1] came out at 4.5 nM; in test [2] (setting [4]) it was 4.7 nM; in test [3] (setting [5]), 4400 nM.

Take `CCc1c(-c2cc(C)nc(C)c2)[nH]c2ccc(C3CCN(C(=O)CNC)CC3)cc12` [Example 529, 1-(4-(2-(2,6-dimethylpyridin-4-yl)-3-ethyl-1H-indol-5-yl)piperidin-1-yl)-2-(methylamino)ethan-1-one]: the IC50 came to 6.6 nM in test [1], 28.2 nM in test [2] (setting [4]) and 119 nM in test [3] (setting [5]).

Take `Cc1cc(-c2[nH]c3ccc(C4CCN(CC(=O)N(C)C)CC4)cc3c2C(C)C)ccn1` [Example 512, 2-(4-(3-isopropyl-2-(2-methylpyridin-4-yl)-1H-indol-5-yl)piperidin-1-yl)-N,N-dimethylacetamide]: the IC50 amounted to 13 nM in test [1], 11.7 nM in test [2] (setting [4]) and 1060 nM in test [3] (setting [5]).

The values above are taken from US10660877B2 (BRISTOL-MYERS SQUIBB COMPANY, priority 2016, dated 2020).
